Activity calls are given as the source filed them. No cut-off for these calls is given here.
Tests used:
[1] = Inhibition of N-terminal 6His-tagged TRKC G623R mutant (506 to 829 residues) (unknown origin) expressed in Escherichia coli incubated for 60 mins by [gamma-33P]-ATP based TopCount NXT liquid scintillation assay; set-up: species or system Homo sapiens
[2] = Toxicity in nu/nu NCr mouse implanted with mouse NIH3T3 cells harboring extracellular domain deleted TRKA assessed as body weight loss at 30 to 300 mg/kg, po administered twice daily for 10 days relative to control; type: organism-based; conditions: in vivo, 240 h, dose 30-300 mg/kg, time 10 day
SJRH30 = experiment: Inhibition of cell proliferation in human SJRH30 cells upto 10 umol/L incubated for 72 hrs by DAPI staining based analysis; type: functional; conditions: dose <= 10.0 µmol/L
Detroit 562 = experiment: Inhibition of cell proliferation in human Detroit 562 cells upto 10 umol/L incubated for 72 hrs by DAPI staining based analysis; type: functional; conditions: dose <= 10.0 µmol/L
SK-N-DZ = experiment: Inhibition of cell proliferation in human SK-N-DZ cells upto 10 umol/L incubated for 72 hrs by DAPI staining based analysis; type: functional; conditions: dose <= 10.0 µmol/L
Hs-578T = experiment: Inhibition of cell proliferation in human Hs-578T cells upto 10 umol/L incubated for 72 hrs by DAPI staining based analysis; type: functional; conditions: dose <= 10.0 µmol/L
[3] = Cmax in pediatric patient with recurrent ETV6-NTRK3-rearranged infantile fibrosarcoma at 60 mg administered twice a day as liquid formulation for 8 day by LC-MS/MS analysis; type: ADME; conditions: human, in vivo
[4] = AUC in adult patient with recurrent LMNA-NTRK1 rearranged colorectal cancer at 50 mg administered twice a day as powder-in-capsule or liquid formulation for 1 day by LC-MS/MS analysis; type: ADME; conditions: human, in vivo, po
[5] = target: Insulin receptor (Homo sapiens) (UniProt P06213); experiment: Inhibition of IR (unknown origin) at 1 uM in presence of ATP relative to control; values are per cent of control
Insulin receptor (Homo sapiens), sequence (P06213 28-758 limits assumed): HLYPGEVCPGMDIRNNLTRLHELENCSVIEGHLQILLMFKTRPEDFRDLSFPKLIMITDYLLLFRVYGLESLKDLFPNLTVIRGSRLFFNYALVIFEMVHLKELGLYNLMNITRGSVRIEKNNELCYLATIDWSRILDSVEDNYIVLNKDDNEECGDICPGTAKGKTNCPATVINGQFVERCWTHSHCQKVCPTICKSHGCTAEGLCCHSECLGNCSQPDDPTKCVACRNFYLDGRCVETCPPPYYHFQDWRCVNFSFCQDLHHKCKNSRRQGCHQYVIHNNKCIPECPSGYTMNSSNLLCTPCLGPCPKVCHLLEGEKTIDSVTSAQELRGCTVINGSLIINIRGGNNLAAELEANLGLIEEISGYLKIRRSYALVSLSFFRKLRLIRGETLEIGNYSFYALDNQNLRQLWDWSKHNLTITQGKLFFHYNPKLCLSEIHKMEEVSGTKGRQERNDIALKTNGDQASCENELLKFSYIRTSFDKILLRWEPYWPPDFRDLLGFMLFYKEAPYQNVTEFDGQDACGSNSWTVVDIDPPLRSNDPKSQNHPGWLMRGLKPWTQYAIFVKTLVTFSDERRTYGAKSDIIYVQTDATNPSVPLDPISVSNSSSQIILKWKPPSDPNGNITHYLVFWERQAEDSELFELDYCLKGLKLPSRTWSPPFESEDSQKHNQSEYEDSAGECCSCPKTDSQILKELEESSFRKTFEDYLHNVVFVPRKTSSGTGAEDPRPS
Insulin receptor (Homo sapiens), sequence (P06213 763-1382 limits assumed): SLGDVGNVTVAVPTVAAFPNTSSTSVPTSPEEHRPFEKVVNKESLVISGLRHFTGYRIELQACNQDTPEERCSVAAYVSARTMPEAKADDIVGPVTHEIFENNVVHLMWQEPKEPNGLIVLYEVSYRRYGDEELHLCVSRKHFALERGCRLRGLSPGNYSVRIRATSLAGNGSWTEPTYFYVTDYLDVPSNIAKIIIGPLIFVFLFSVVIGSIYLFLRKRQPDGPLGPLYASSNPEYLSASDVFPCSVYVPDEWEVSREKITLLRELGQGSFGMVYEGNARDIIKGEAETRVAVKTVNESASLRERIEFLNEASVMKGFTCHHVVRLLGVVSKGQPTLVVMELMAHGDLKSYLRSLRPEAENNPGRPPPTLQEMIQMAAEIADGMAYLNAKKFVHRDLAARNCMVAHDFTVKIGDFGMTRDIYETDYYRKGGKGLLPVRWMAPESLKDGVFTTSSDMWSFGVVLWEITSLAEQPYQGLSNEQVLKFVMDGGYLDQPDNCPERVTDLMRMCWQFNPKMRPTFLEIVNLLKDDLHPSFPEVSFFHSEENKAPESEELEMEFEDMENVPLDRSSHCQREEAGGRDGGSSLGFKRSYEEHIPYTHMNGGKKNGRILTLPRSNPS

[6] = target: Tyrosine-protein kinase receptor UFO (Homo sapiens) (UniProt P30530); experiment: Inhibition of Axl (unknown origin) at 1 uM in presence of ATP relative to control; values are per cent of control
[7] = target: Tyrosine-protein kinase Lck (Homo sapiens) (UniProt P06239); experiment: Inhibition of Lck (unknown origin) at 1 uM in presence of ATP relative to control; values are per cent of control
Tyrosine-protein kinase Lck (Homo sapiens), sequence (P06239 2-509 limits assumed): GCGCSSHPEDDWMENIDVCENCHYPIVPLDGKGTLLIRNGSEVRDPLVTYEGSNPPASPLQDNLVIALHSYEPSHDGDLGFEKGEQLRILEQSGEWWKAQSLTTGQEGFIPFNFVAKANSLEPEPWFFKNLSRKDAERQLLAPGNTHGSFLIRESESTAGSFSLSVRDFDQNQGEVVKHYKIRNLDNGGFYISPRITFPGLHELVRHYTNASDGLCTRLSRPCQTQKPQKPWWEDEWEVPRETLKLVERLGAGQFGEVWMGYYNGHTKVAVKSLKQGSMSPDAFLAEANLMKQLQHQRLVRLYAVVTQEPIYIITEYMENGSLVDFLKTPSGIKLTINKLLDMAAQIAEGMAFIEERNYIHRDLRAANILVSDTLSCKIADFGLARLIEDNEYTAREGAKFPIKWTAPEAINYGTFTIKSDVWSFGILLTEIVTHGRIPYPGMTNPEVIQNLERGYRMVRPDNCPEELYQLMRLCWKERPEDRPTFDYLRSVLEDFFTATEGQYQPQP

[8] = target: Tyrosine-protein kinase Lyn (Homo sapiens) (UniProt P07948); experiment: Inhibition of Lyn (unknown origin) at 1 uM in presence of ATP relative to control; values are per cent of control
[9] = target: Hepatocyte growth factor receptor (Homo sapiens) (UniProt P08581); experiment: Inhibition of Met (unknown origin) at 1 uM in presence of ATP relative to control; values are per cent of control
[10] = target: Tyrosine-protein kinase receptor TYRO3 (Homo sapiens) (UniProt Q06418); experiment: Inhibition of Rse (unknown origin) at 1 uM in presence of ATP relative to control; values are per cent of control
[11] = target: Tyrosine-protein kinase Yes (Homo sapiens) (UniProt P07947); experiment: Inhibition of Yes (unknown origin) at 1 uM in presence of ATP relative to control; values are per cent of control
[12] = target: Ribosomal protein S6 kinase alpha-1 (Homo sapiens) (UniProt Q15418); experiment: Inhibition of Rsk1 (unknown origin) at 1 uM in presence of ATP relative to control; values are per cent of control
[13] = target: Serine/threonine-protein kinase Sgk1 (Homo sapiens) (UniProt O00141); experiment: Inhibition of SGK1 (unknown origin) at 1 uM in presence of ATP relative to control; values are per cent of control
[14] = target: Serine/threonine-protein kinase STK11 (Homo sapiens) (UniProt Q15831); experiment: Inhibition of LKB1 (unknown origin) at 1 uM in presence of ATP relative to control; values are per cent of control
[15] = target: Serine/threonine-protein kinase D2 (Homo sapiens) (UniProt Q9BZL6); experiment: Inhibition of PKD2 (unknown origin) at 1 uM in presence of ATP relative to control; values are per cent of control
Serine/threonine-protein kinase D2 (Homo sapiens), sequence (Q9BZL6 whole entry): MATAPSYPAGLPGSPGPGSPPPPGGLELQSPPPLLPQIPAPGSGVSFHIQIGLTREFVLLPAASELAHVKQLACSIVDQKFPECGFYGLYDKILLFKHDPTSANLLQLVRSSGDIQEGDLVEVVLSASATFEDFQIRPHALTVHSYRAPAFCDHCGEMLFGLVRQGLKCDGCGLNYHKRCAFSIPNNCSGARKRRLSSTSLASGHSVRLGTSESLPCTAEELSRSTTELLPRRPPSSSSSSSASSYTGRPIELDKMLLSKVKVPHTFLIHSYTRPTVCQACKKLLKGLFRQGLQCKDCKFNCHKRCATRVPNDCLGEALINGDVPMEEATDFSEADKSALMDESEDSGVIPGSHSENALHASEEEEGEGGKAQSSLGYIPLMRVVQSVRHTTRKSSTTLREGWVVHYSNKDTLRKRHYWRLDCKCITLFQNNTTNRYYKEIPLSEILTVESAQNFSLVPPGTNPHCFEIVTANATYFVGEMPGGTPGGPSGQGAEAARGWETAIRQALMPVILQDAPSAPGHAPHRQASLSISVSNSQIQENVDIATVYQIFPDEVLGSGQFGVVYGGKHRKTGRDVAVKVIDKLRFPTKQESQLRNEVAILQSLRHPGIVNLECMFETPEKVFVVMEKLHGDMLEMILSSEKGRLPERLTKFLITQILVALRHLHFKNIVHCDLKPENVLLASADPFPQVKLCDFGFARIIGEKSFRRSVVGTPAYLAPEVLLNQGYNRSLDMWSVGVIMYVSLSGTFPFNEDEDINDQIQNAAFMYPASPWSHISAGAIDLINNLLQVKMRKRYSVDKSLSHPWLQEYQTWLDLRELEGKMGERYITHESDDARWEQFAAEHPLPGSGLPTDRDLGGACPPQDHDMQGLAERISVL

[16] = target: Serine/threonine-protein kinase Nek2 (Homo sapiens) (UniProt P51955); experiment: Inhibition of NEK2 (unknown origin) at 1 uM in presence of ATP relative to control; values are per cent of control
Serine/threonine-protein kinase Nek2 (Homo sapiens), sequence (P51955 whole entry): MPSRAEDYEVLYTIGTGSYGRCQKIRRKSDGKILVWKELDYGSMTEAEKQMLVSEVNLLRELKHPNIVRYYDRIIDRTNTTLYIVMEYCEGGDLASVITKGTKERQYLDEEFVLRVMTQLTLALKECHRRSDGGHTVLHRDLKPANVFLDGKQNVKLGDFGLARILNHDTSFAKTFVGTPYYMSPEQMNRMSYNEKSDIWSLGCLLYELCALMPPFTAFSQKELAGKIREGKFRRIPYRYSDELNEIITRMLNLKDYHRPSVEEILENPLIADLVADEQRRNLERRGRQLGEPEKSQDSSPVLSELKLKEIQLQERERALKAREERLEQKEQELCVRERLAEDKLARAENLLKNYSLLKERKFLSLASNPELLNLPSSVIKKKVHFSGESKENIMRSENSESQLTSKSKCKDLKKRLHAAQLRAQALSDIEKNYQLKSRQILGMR

[17] = target: Testis-specific serine/threonine-protein kinase 1 (Homo sapiens) (UniProt Q9BXA7); experiment: Inhibition of TSSK1 (unknown origin) at 1 uM in presence of ATP relative to control; values are per cent of control
[18] = target: Ephrin type-A receptor 8 (Homo sapiens) (UniProt P29322); experiment: Inhibition of EphA8 (unknown origin) at 1 uM in presence of ATP relative to control; values are per cent of control
Ephrin type-A receptor 8 (Homo sapiens), sequence (P29322 whole entry): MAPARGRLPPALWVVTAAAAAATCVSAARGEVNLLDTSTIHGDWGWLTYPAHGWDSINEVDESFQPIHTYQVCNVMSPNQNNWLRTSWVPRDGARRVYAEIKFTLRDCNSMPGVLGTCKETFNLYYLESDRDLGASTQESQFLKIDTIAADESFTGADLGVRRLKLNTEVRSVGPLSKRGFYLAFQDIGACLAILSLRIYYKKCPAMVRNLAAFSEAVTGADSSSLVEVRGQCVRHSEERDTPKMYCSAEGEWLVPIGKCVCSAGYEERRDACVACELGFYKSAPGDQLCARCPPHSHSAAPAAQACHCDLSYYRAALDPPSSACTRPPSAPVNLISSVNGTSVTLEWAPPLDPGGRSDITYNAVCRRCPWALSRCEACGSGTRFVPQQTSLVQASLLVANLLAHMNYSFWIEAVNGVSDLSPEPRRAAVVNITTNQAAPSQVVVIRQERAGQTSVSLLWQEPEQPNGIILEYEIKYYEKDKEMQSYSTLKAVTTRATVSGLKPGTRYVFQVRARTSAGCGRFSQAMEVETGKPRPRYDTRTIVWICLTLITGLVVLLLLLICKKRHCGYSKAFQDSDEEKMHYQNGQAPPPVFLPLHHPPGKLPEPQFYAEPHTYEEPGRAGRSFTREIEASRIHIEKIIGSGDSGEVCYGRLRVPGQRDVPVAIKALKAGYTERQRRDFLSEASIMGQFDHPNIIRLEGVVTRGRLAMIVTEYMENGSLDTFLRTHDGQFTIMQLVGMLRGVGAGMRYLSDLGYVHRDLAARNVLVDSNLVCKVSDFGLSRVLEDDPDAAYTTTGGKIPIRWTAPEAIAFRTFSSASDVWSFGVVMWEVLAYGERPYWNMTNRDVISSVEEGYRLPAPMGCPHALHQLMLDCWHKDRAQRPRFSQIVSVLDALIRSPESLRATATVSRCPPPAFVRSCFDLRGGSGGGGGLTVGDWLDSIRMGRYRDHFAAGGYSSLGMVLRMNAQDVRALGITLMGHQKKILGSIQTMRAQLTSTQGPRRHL

[19] = target: Protein kinase C alpha type (Homo sapiens) (UniProt P17252); experiment: Inhibition of PKCalpha (unknown origin) at 1 uM in presence of ATP relative to control; values are per cent of control
[20] = target: Cyclin-dependent kinase 5/CDK5 activator 1 (Homo sapiens) (UniProt Q00535+Q15078); experiment: Inhibition of CDK5/p25 (unknown origin) at 1 uM in presence of ATP relative to control; values are per cent of control
[21] = target: Glycogen synthase kinase-3 beta (Homo sapiens) (UniProt P49841); experiment: Inhibition of GSK3beta (unknown origin) at 1 uM in presence of ATP relative to control; values are per cent of control
[22] = target: Mitogen-activated protein kinase 14 (Homo sapiens) (UniProt Q16539); experiment: Inhibition of p38alpha (unknown origin) at 1 uM in presence of ATP relative to control; values are per cent of control
[23] = target: Casein kinase I isoform gamma-3 (Homo sapiens) (UniProt Q9Y6M4); experiment: Inhibition of CK1gamma3 (unknown origin) at 1 uM in presence of ATP relative to control; values are per cent of control
Casein kinase I isoform gamma-3 (Homo sapiens), sequence (Q9Y6M4 whole entry, looked up, canonical isoform): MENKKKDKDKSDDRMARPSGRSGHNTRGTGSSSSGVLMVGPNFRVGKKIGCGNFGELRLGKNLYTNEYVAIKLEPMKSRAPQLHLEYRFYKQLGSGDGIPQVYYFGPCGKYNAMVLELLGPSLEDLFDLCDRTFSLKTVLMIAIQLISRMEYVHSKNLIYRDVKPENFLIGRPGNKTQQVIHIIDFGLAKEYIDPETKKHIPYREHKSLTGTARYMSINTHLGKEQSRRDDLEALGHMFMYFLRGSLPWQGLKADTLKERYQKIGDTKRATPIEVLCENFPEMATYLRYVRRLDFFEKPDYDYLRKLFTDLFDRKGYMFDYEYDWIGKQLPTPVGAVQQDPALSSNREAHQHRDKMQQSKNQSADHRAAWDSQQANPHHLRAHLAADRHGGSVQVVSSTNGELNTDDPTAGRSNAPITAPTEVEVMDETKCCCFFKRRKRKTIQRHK

[24] = target: Casein kinase II subunit alpha' (Homo sapiens) (UniProt P19784); experiment: Inhibition of CK2alpha2 (unknown origin) at 1 uM in presence of ATP relative to control; values are per cent of control
Casein kinase II subunit alpha' (Homo sapiens), sequence (P19784 whole entry, looked up): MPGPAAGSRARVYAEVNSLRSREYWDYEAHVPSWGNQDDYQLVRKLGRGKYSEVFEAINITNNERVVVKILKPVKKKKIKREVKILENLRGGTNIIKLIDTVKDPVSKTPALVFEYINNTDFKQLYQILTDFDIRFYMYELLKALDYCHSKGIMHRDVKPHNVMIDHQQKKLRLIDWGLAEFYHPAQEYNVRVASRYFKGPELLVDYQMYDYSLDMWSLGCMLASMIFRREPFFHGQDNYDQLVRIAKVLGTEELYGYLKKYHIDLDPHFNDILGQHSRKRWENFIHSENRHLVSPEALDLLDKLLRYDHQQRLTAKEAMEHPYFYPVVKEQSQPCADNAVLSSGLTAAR

IC50 [1]: 2.3 nM
Cmax [3]: 415 ng/mL
AUC at 24 h [4]: 1190 ng·h/mL
residual activity [5]: 92%
residual activity [6]: 90%
residual activity [7]: 92.5%
residual activity [8]: 98%
residual activity [9]: 109%
residual activity [10]: 110%
residual activity [11]: 82%
residual activity [12]: 109%
residual activity [13]: 124%
residual activity [14]: 108%
residual activity [15]: 110%
residual activity [16]: 117%
residual activity [17]: 99%
residual activity [18]: 81.5%
residual activity [19]: 107%
residual activity [20]: 98.5%
residual activity [21]: 124%
residual activity [22]: 109%
residual activity [23]: 113%
residual activity [24]: 99%
SMILES: C[C@@H]1CCc2ncc(F)cc2[C@H]2CCCN2c2ccn3ncc(c3n2)C(=O)N1 [SELITRECTINIB]
Activity [2]: < 5%
inhibition (SJRH30): inactive
inhibition (Detroit 562): inactive
inhibition (SK-N-DZ): inactive
inhibition (Hs-578T): inactive
